According to PMC10046369, “Low-Affinity/High-Selectivity Dopamine Transport Inhibition Sufficient to Rescue Cognitive Functions in the Aging Rat” (Biomolecules, 2023):

Tests used:
Assay in all cases: biochemical
Design in all cases: KINOMEscan competition binding panel, per cent of control
Conditions in all cases: read-out: %Ctrl @ 2800nM
[1] = target: AKT2 (Homo sapiens, UniProt P31751)
Method in brief: (§1)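 Competition binding panel (KINOMEscan) across 450 human kinases and disease-relevant mutants, run to the contractor's standard protocol. Values are % control: (test signal − positive control signal)/(negative control signal − positive control signal) × 100, with lower values indicating stronger binding.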

[2] = target: T1, QSK (Homo sapiens, UniProt Q9Y2K2)
T1 construct: gene SIK3
Method in brief: as §1

[3] = target: LRRK2(G2019S) (Homo sapiens, UniProt Q5S007, G2019S)
Method in brief: as §1

[4] = target: SGK2 (Homo sapiens, UniProt Q9HBY8)
Method in brief: as §1

[5] = target: BLK (Homo sapiens, UniProt P51451)
Method in brief: as §1

[6] = target: CSNK1A1L (Homo sapiens, UniProt Q8N752)
Method in brief: as §1

[7] = target: T2, PKAC-beta (Homo sapiens, UniProt P22694)
T2 construct: gene PRKACB
Method in brief: as §1

[8] = target: LATS2 (Homo sapiens, UniProt Q9NRM7)
Method in brief: as §1

[9] = target: T3, CDK11 (Homo sapiens, UniProt Q9BWU1)
T3 construct: gene CDK19
Method in brief: as §1

[10] = target: CIT (Homo sapiens, UniProt O14578)
Method in brief: as §1

[11] = target: T4, ERK5 (Homo sapiens, UniProt Q13164)
T4 construct: gene MAPK7
T4 sequence (Q13164 whole entry): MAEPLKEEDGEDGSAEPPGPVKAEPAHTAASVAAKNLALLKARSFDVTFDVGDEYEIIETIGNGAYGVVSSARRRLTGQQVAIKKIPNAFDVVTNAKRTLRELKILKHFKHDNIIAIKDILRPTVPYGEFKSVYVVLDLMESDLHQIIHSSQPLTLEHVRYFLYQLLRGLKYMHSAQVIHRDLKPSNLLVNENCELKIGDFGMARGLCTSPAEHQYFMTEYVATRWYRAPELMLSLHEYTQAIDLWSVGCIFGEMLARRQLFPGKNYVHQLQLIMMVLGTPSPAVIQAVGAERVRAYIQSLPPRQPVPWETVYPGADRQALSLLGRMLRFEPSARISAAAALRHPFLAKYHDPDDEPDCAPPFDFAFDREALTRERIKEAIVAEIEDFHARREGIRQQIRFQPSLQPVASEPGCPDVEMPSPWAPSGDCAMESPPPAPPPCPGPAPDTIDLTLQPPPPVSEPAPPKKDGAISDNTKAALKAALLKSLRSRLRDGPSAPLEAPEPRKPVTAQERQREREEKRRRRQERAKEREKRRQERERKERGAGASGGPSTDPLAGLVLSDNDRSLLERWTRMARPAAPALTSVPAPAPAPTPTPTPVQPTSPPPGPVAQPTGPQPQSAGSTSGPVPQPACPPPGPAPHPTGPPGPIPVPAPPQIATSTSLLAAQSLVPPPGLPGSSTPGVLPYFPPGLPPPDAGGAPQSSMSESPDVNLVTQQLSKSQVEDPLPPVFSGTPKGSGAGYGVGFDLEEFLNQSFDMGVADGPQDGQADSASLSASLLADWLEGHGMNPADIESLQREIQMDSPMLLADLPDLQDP
Method in brief: as §1

[12] = target: STK39 (Homo sapiens, UniProt Q9UEW8)
Method in brief: as §1

[13] = target: KIT(V559D) (Homo sapiens, UniProt P10721, V559D)
Method in brief: as §1

[14] = target: PDPK1 (Homo sapiens, UniProt O15530)
Method in brief: as §1

[15] = target: MET (Homo sapiens, UniProt P08581)
MET, sequence (P08581 whole entry): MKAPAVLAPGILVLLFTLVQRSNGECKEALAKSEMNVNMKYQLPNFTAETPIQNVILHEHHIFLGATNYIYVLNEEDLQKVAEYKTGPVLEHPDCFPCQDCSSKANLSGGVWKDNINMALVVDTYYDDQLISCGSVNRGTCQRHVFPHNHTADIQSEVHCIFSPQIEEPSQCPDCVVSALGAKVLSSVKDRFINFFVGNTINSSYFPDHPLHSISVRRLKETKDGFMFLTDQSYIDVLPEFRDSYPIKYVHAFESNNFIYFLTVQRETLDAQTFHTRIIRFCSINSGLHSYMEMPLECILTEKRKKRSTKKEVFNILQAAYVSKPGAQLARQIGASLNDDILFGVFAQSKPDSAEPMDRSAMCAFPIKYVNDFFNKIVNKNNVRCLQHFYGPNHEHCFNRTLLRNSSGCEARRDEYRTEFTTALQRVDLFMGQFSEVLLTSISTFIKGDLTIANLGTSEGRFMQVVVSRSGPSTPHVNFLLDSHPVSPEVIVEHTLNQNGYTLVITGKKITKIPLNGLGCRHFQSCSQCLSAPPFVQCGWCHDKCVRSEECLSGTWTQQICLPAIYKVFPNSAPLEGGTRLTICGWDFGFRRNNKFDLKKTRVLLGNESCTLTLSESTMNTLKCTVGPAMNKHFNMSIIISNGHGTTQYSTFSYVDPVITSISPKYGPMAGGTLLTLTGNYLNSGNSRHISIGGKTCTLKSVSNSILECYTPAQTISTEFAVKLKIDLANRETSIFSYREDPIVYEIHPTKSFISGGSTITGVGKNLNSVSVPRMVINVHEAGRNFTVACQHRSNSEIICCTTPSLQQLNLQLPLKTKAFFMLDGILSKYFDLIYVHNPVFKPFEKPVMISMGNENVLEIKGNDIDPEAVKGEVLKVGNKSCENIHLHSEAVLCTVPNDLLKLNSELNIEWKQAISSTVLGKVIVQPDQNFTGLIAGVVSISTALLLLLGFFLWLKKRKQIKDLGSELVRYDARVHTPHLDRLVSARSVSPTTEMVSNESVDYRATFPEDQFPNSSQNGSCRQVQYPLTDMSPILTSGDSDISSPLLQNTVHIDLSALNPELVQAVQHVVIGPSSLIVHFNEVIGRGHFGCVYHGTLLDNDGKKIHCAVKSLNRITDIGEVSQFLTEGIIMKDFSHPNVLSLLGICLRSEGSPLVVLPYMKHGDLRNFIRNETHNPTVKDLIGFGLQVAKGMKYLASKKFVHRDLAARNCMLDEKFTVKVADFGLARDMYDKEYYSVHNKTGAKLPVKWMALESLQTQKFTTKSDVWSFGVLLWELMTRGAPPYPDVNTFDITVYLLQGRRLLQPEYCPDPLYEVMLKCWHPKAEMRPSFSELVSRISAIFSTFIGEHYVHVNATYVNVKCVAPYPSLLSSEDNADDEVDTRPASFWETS
Method in brief: as §1

[16] = target: MYO3B (Homo sapiens, UniProt Q8WXR4)
Method in brief: as §1

[17] = target: CAMK4 (Homo sapiens, UniProt Q16566)
Method in brief: as §1

[18] = target: PIK3CA(M1043I) (Homo sapiens, UniProt P42336, M1043I)
Method in brief: as §1

[19] = target: T5, SgK110 (Homo sapiens, UniProt P0C264)
T5 construct: gene SBK3
Method in brief: as §1

[20] = target: PLK2 (Homo sapiens, UniProt Q9NYY3)
Method in brief: as §1

[21] = target: CDK7 (Homo sapiens, UniProt P50613)
Method in brief: as §1

[22] = target: PRKCH (Homo sapiens, UniProt P24723)
PRKCH, sequence (P24723 whole entry): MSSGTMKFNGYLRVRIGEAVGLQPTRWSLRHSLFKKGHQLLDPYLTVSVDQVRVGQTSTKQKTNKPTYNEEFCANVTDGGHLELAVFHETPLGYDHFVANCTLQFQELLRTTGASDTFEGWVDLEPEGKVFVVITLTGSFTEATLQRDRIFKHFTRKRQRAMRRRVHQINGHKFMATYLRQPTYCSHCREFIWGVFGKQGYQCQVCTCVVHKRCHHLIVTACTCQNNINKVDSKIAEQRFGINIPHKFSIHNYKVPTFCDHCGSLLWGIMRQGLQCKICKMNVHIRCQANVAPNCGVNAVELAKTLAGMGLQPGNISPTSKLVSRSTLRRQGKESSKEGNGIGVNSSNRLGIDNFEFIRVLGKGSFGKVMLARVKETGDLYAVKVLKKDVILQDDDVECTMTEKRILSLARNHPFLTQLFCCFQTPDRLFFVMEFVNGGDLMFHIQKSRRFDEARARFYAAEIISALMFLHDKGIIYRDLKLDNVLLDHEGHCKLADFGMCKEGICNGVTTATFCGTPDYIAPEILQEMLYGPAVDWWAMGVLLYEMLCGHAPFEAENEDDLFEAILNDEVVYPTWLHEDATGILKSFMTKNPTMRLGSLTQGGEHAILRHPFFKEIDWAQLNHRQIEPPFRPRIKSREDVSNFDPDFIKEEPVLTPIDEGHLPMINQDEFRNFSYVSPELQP
Method in brief: as §1

[23] = target: IRAK1 (Homo sapiens, UniProt P51617)
IRAK1, sequence (P51617 whole entry): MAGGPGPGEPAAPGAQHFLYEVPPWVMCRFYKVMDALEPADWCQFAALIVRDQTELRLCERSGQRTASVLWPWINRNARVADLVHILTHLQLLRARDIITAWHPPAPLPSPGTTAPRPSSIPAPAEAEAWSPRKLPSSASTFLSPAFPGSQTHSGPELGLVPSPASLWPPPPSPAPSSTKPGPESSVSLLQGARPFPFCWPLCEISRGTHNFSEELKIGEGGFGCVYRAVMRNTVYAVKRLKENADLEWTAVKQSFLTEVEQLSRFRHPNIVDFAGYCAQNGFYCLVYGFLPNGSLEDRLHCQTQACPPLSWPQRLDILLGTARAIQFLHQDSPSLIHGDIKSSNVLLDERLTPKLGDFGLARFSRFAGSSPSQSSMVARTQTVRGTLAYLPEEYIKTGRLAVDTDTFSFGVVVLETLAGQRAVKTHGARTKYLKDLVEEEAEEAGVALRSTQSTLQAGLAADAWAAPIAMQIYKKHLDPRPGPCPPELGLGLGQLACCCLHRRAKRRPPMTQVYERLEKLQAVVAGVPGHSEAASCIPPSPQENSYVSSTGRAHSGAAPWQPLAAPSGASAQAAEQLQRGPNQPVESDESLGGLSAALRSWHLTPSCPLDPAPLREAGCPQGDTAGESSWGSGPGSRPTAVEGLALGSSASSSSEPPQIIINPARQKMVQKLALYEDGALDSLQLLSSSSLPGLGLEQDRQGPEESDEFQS
Method in brief: as §1

[24] = target: T6, IKK-epsilon (Homo sapiens, UniProt Q14164)
T6 construct: gene IKBKE
T6 sequence (Q14164 whole entry): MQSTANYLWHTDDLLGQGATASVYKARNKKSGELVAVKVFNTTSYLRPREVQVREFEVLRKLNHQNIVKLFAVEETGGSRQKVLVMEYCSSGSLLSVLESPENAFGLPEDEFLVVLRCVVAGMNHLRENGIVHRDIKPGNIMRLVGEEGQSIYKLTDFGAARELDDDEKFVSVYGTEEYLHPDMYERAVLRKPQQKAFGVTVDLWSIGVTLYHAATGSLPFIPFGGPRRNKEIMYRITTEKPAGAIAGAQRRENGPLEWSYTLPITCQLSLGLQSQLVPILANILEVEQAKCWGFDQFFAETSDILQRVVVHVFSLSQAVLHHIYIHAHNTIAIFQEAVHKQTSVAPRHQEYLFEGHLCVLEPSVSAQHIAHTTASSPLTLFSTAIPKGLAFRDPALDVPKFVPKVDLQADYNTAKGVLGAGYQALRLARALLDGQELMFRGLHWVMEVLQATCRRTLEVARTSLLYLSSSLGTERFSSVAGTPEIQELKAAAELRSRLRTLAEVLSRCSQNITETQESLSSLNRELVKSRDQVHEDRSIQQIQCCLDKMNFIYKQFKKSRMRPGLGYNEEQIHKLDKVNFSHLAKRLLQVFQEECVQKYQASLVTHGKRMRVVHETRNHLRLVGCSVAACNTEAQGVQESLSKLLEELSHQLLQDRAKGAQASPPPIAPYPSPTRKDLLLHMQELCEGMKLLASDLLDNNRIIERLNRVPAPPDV
Method in brief: as §1

[25] = target: MAP3K4 (Homo sapiens, UniProt Q9Y6R4)
Method in brief: as §1

[26] = target: RAF1 (Homo sapiens, UniProt P04049)
RAF1, sequence (P04049 whole entry): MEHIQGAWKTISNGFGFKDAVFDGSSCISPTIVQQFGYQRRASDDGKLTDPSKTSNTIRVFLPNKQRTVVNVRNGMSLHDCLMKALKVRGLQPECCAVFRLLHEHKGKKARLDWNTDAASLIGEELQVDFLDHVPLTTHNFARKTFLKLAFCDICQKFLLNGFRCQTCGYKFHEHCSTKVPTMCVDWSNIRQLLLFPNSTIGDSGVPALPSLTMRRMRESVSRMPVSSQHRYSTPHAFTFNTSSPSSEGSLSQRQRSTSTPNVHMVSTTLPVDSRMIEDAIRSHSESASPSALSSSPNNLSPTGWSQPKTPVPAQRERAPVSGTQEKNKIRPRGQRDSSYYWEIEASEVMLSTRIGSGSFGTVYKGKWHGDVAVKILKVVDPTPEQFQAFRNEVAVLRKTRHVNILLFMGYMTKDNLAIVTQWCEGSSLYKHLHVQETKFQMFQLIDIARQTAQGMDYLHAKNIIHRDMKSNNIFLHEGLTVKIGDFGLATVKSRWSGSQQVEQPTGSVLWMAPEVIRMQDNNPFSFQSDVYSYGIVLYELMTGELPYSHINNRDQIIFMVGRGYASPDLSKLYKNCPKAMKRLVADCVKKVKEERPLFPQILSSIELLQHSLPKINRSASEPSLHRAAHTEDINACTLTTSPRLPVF
Method in brief: as §1

[O-][S@@+](Cc1cncs1)C(c1ccccc1)c1ccccc1 [S-CE-123, (S)-5-((Benzhydrylsulfinyl)Methyl)Thiazole]
remaining binding at 2.8 µM [1]: 87% | remaining binding at 2.8 µM [2]: 93% | remaining binding at 2.8 µM [3]: 96% | remaining binding at 2.8 µM [4]: 100% | remaining binding at 2.8 µM [5]: 90% | remaining binding at 2.8 µM [6]: 100% | remaining binding at 2.8 µM [7]: 100% | remaining binding at 2.8 µM [8]: 100% | remaining binding at 2.8 µM [9]: 71% | remaining binding at 2.8 µM [10]: 74% | remaining binding at 2.8 µM [11]: 91% | remaining binding at 2.8 µM [12]: 100% | remaining binding at 2.8 µM [13]: 97% | remaining binding at 2.8 µM [14]: 95% | remaining binding at 2.8 µM [15]: 99% | remaining binding at 2.8 µM [16]: 52% | remaining binding at 2.8 µM [17]: 91% | remaining binding at 2.8 µM [18]: 63% | remaining binding at 2.8 µM [19]: 72% | remaining binding at 2.8 µM [20]: 89% | remaining binding at 2.8 µM [21]: 70% | remaining binding at 2.8 µM [22]: 100% | remaining binding at 2.8 µM [23]: 91% | remaining binding at 2.8 µM [24]: 98% | remaining binding at 2.8 µM [25]: 84% | remaining binding at 2.8 µM [26]: 76%
